{"source": "patent US20190008879A1", "about": "(priority 2017, published 2019)", "key": {"PI3K/Akt pathway": {"test_system": "PI3K/Akt pathway", "details": "cited from earlier work"}, "[1]": {"test_system": "mammary tumor cell line MCF-7", "experiment": "In vitro antitumor activity on MCF-7, noted by the inventor", "type": "cell-based, human", "details": "MCF-7 strain"}, "periampullary cancer": {"test_system": "periampullary cancer", "experiment": "Preventive consumption of phytin by the patient before the diagnosis", "type": "in vivo, human", "details": "1.4 g/day phytin solubilized in citric acid, oral, for 5 years before diagnosis", "text": "Before their admission to emergency department, the patient consumed, on a regular basis, with a view to prevention and for 5 years as an oral food supplement, 1.4 g/day of phytin solubilized in citric acid."}, "[2]": {"test_system": "invasive ductal breast cancer", "details": "6 g/d in addition to chemotherapy, six months, 14 patients; cited from earlier work"}}}
{"compound": "O=P(O)(O)O[C@@H]1[C@@H](OP(=O)(O)O)[C@H](OP(=O)(O)O)[C@H](O)[C@H](OP(=O)(O)O)[C@H]1OP(=O)(O)O", "note": "[myo-inositol 1,3,4,5,6 pentakis phosphate]", "values": [{"measurement": "antitumor activity compared with phytin", "setting": "PI3K/Akt pathway", "result": "higher than that of phytin"}, {"measurement": "anti-angiogenic action", "setting": "PI3K/Akt pathway; concentration of 50 μM", "result": "anti-angiogenic action by inhibiting the PI3K/Akt pathway"}]}
{"compound": "O[C@H]1[C@H](O)[C@@H](O)[C@H](O)[C@@H](O)[C@H]1O", "note": "[myo-inositol]", "values": [{"measurement": "in vitro antitumor action", "setting": "[1]", "result": "no in vitro antitumor action"}]}
{"compound": "phytin", "values": [{"measurement": "antitumor activity in human in the absence of magnesium chloride", "setting": "periampullary cancer", "result": "does not have antitumor activity in human"}, {"measurement": "cytopenia (leucocyte and platelet quantitative deficiency)", "setting": "[2]", "result": "preserved from cytopenia"}, {"measurement": "tumor progression", "setting": "[2]", "result": "no impact on tumor progression"}]}
